Assay results from patent US20250381269A1, “BISPECIFIC ANTIBODY BINDING EGFR AND B7-H3” (FORTVITA BIOLOGICS (SINGAPORE) PTE. LTD., priority 2022, published 2025).

Columns and labels:
[1] = tested on: SK-MES-1; assay: Proliferation inhibition experiment, SK-MES-1 (NSCLC); type: cell-based; conditions: TKI highest concentration 1000 nM
Procedure: (§1) • (1) NSCLC: plated at 1500-2500 cells/100 μL in a 96-well low-adsorption plate (Corning, CLS7007-24EA) for 3D cell culture, in which the following cell lines and specific amounts were used: • NSCLC: 2000 cells/100 μL/well • NCI-H292: Cell Bank of the Chinese Academy of Sciences, SCSP-582 • NCI-H322: Cobioer, CBP60134 • NCI-H1650: ATCC, CRL-5883 • NCI-H1975: ATCC, CRL-5908 • SK-MES-1: CoBioer, CBP60152 • NCI-H1703: ATCC, HTB-43 • PC9+hB7H3: constructed as described above • CRC and HNSCC: plated at 1500-2000 cells/100 μL in a 96-well white-bottom plate (NUNC, 136101) for 2D cell culture, in which the following cell lines and specific amounts were used: • CRC: 1500 cells/100 μL/well • CCK-81: CoBioer, CBP60581 • HT-55: CoBioer, CBP60012 • H508: CoBioer, CBP60795 • LS180: CoBioer, CBP60034 • HNSCC: 1500 cells/100 μL/well • TE-1: CoBioer, CBP60655 • Colo680: CoBioer, CBP60452. (2) The antibody molecules prepared in advance by dilution were added to the corresponding cell well plate, mixed well, and cultured in an incubator at 37° C. with 5% CO2 for 5 days. • (3) After 5 days of continuous culture for proliferation inhibition assay, the Cell-Titer reagent (Promega, G7572) prepared in advance was added to cell wells, the plate was left to stand at room temperature for 15-25 min in the dark, and then CRC and HNSCC cells were directly detected by a multimode microplate reader (Molecular Devices, Spectra MAXi3). • (4) NSCLC: Cell-Titer and the cell mixture were transferred to a 96-well white-bottom plate (NUNC, 136101) and detected by a multimode microplate reader (Molecular Devices, Spectra MAXi3).

[2] = tested on: H1703; assay: Proliferation inhibition experiment, H1703 (NSCLC); type: cell-based; conditions: NCI-H1703; TKI highest concentration 1000 nM
Procedure: as §1

[3] = tested on: LS180 (EGFR^R521K, KRAS^G12D) CRC tumor cell line; assay: Proliferation inhibition experiment, LS180, combination with MRTX1133; type: cell-based; conditions: 15.62 nM MRTX1133, read as without bsAb (starting value of the increase)
Procedure: • (1) NSCLC (H358) (Cobioer, CBP60136) and CRC (LS180) (Cobioer, CBP60034): plated at 1500-2500 cells/100 μL in a 96-well low-adsorption plate (Corning, CLS7007-24EA) for 3D cell culture. • (2) The antibody molecules and small molecule inhibitors prepared in advance by dilution were added to the corresponding cell well plate, mixed well, and cultured at 37° C. with 5% CO2 for 5 days. • (3) After 5 days of continuous culture for proliferation inhibition assay, the Cell-Titer reagent (Promega, G7572) prepared in advance was added to cell wells, and the plate was left to stand at room temperature for 15-25 min in the dark. • (4) Cell-Titer and the above cell mixture were transferred to a 96-well white-bottom plate (NUNC, 136101) and detected by a multimode microplate reader (Molecular Devices, Spectra MAXi3).

[4] = tested on: NCI-H358 tumor-bearing mice; assay: Anti-tumor efficacy in NCI-H358 tumor-bearing mice, combination with AMG510; type: in vivo, NOG mice
Procedure: SPF female NOG mice (purchased from Beijing Vital River Laboratory Animal Technology Co., Ltd.) with certificate No. 1100112211001153625 were used in the experiment.
NCI-H358 cells were routinely subcultured for the subsequent in-vivo experiment. The cells were collected by centrifugation. Then the NCI-H358 cells were resuspended in an equal-proportion mixture of PBS (1×) and Matrigel Matrix (Corning) to prepare a cell suspension with a cell concentration of 25×10^6 cells/mL. On day 0, 0.2 mL of the cell suspension was taken and subcutaneously inoculated to the right abdominal area of NOG mice to establish NCI-H358 tumor-bearing mouse models.
Six days after the tumor cell inoculation, the tumor volume in each mouse was measured. The mice were grouped (with 7 mice in each group).
Administration was performed on days 6, 9, 12, and 15 after the inoculation of NCI-H358 cells. Mice were monitored for tumor volume and body weight twice a week. […] Mice were monitored for tumor volume twice a week, and were monitored for body weight every day during the administration, and twice a week after the end of administration. […] On day 33 after the inoculation, the relative tumor growth inhibition (TG1%) was calculated by the following formula: TG1%=100%×(control group tumor volume−treatment group tumor volume)/(control group tumor volume−control group tumor volume before administration).
Tumor volume measurement: The maximum length of major axis (L) and maximum length of minor axis (W) of tumors were measured with a vernier caliper, and tumor volume was calculated by the following formula: V=L×W^2/2. The mice were weighed using an electronic balance.

Compound	sensitivity of the cell line to EGFR-TKI, in words [1]	sensitivity of the cell line to EGFR-TKI, in words [2]	also measured
C#Cc1cccc(Nc2ncnc3cc(OCCOC)c(OCCOC)cc23)c1 [erlotinib]	resistant and not sensitive	resistant and not sensitive	–
C#Cc1c(F)ccc2cc(O)cc(-c3ncc4c(N5CC6CCC(C5)N6)nc(OC[C@@]56CCCN5C[C@H](F)C6)nc4c3F)c12 [MRTX1133]	–	–	anti-LS180 tumor efficacy [3]: 36.45%
C=CC(=O)Nc1cc(Nc2nccc(-c3cn(C)c4ccccc34)n2)c(OC)cc1N(C)CCN(C)C [osimertinib]	resistant and not sensitive	resistant and not sensitive	–
C=CC(=O)N1CCN(c2nc(=O)n(-c3c(C)ccnc3C(C)C)c3nc(-c4c(O)cccc4F)c(F)cc23)[C@@H](C)C1 [AMG510, sotorasib]	–	–	Tumor volume (mm^3) ([4]; NCI-H358, NOG mice, antibodies 10 mg/kg i.p. Q3-4D x4 (h-IgG 20 mg/kg), AMG510 10 mg/kg intragastric QD x14, day 33): 180 mm^3; Tumor growth inhibition (%) ([4]; NCI-H358, NOG mice, antibodies 10 mg/kg i.p. Q3-4D x4, AMG510 10 mg/kg intragastric QD x14, day 33, vs h-IgG 20 mg/kg): 89%; body weight of mice ([4]; NCI-H358 tumor-bearing NOG mice, during administration and on day 33): caused a gradual decrease in the body weight of mice
